Source: patent US5610195A, “Ornithine decarboxylase inhibiting branched aminooxy amino alkane derivatives” (Ciba-Geigy Corporation, priority 1993, dated 1997)
Where a name gives a salt, the structure may show the parent alone. Read-outs that look alike come from different tables or passages of the source.

Columns and labels:
[1] = biological target: T1, ODC from the rat liver (Rattus norvegicus, UniProt P09057); assay: inhibition of ornithine decarboxylase (Seely and Pegg method, ODC from rat liver); type: biochemical
T1 sequence (P09057 1-461): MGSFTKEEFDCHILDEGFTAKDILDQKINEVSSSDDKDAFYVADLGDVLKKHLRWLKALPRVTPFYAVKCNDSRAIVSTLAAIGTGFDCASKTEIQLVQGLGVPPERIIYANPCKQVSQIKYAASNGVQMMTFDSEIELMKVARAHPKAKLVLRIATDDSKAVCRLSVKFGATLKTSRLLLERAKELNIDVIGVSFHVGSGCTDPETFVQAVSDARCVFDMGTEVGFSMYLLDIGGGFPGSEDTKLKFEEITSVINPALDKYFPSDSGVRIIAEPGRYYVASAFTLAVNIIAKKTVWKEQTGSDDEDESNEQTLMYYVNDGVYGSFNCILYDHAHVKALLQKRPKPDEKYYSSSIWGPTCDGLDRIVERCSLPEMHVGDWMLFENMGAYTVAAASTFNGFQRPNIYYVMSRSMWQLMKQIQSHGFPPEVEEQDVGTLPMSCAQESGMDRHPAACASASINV
Method: White-Tabor (editors): Methods in Enzymology, Volume 94: Polyamines, Academic Press, New York 1983. If ODC from the rat liver is used in this test (isolation: Hayashi, S. I. and Kameji, T., same volume, pages 154-158), IC50 values in the micromolar range down to about 0.01 μM, preferably between about 0.01 and 1 μM, for example between 0.014 and 0.7 μM, are obtained for compounds of the formula I. IC50 is the concentration of the inhibitor at which the ODC activity is 50% of a control without inhibitor.
The following results were obtained for inhibition of ODC from the rat liver (see above, Seely and Pegg and Hayashi and Kameji) with determination of the IC50 and for inhibition of the tumour growth of T24 bladder carcinoma cells (described above) with determination of the IC50 : […]

[2] = test system: human T24 bladder carcinoma cells; assay: inhibition of growth of human T24 bladder carcinoma cells (methylene blue staining); type: cell-based; conditions: 120 h, read-out: T24 inhibition IC50
Method: The carcinoma cells (1000-1500) are transinoculated into 96-well microtitre plates and incubated overnight under the conditions mentioned. The test substance is added in serial dilutions on day 1. The plates are incubated under the conditions mentioned for 5 days. […] After the incubation, the cells are fixed with 3.3% (weight/volume=w/v) aqueous glutaraldehyde solution, washed with water and stained with 0.05% (w/v) aqueous methylene blue solution. After washing, the dye is eluted with 3% (w/v) aqueous hydrochloric acid. Thereafter, the optical density (OD) per depression, which is directly proportional to the number of cells, is measured with a photometer (Titertek multiskan) at 665 nm. The IC50 values are calculated with a computer system using the formula [formula]

[3] = test system: diamine oxidase (DAO); conditions: known compound, state of the art; cited from earlier work
[4] = test system: ODC; conditions: known compound, state of the art; cited from earlier work
[5] = cited: Eloranta et al., Life Chemistry Reports 9, 163-169 (1991); cited from earlier work
[6] = biological target: T2, DAO from pig kidney (Sus scrofa, UniProt Q9TRC7); assay: selectivity: inhibition of diamine oxidase (14C-putrescine assay) relative to ODC; type: biochemical; conditions: ODC from rat liver
T2 construct: DAO from pig kidney; purchased Sigma Chemie, Deisenhofen, Germany; host or cells: pig kidney
T2 sequence (Q9TRC7 25-755): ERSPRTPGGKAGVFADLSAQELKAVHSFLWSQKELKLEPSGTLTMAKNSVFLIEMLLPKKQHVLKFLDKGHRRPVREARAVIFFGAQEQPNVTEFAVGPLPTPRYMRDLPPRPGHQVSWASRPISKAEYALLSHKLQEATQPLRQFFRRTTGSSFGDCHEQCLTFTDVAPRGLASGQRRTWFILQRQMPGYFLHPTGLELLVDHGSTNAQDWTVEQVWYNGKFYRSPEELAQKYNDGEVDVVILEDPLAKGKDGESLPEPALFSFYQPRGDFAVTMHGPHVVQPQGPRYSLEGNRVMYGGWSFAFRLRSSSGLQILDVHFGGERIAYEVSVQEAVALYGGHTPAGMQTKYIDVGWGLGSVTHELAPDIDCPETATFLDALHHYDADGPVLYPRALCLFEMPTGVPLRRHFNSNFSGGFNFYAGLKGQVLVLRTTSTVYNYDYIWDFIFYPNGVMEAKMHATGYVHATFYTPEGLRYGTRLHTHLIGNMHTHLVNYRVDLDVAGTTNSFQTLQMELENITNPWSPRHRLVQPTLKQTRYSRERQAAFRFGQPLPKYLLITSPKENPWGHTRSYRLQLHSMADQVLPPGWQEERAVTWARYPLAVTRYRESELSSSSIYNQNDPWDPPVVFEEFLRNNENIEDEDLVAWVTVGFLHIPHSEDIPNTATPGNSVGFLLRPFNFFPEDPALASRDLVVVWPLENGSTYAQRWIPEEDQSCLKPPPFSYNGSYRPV
Method: Briefly, the batch contains (expressed as the final concentrations) 0.1M potassium phosphate buffer pH 7.4; 10 mM mercaptoethanol, 0.40 mM putrescine, including 40 nCi [1,4-^14 C]putrescine (Amersham, 110 Ci/mole) and variable amounts of enzyme protein (DAO) and inhibitor. For standard experiments, the batches are incubated for 30 minutes at 37° C. and then transferred to an ice-bath. The reaction is stopped by addition of 0.5 ml of ice-cold 1M Na2 CO3 solution which contains 1 mM aminoguanidine. After addition of 4 ml of toluene with 5 g/l of PPO (2,5-diphenyloxazole), the test tube is continuously inverted around the transverse axis at room temperature for 10 minutes, for mixing, and is then centrifuged at 1800×g in a centrifugal rotor at 4° C. for 5 minutes and finally frozen in ethanol/dry ice. […] After a total of 3 extractions, the combined toluene extracts (which contain the radiolabelled 1-pyrroline to the extent that it has been liberated from putrescine by the action of the DAO) are measured in a liquid scintillation counter (Rack Beta 1215, LKB-Wallac). For calculation of the radioactivity employed, an aliquot of the aqueous phase after 3 extractions is transferred to Whatman GF/C filter (glass fibre filter, Whatman, USA), dried in vacuo and, after addition of 5 ml of toluene/PPO, is counted. […]

[7] = human T24 bladder carcinoma cells, 5 days

SMILES	IC50 [1] [nM]	IC50 [2, 7] [nM]	other results
C[C@@H](N)CCON [Example 2, (2R)-4-Aminooxy-2-butylamine dihydrochloride]	27	5490	
NCCCON [APA, 1-aminooxy-3-aminopropane]			selectivity with respect to diamine oxidase (in words) [3]: not selective with respect to diamine oxidase; inhibition of ODC (in words) [4]: potent inhibitor of ODC; activity in whole animals [5]: practically no action in whole animal tests; quotient of IC50 (DAO)/IC50 (ODC) [6]: about 1.2
CC(CN)CON (centres unmarked) [Example 7, 3-Aminooxy-2-methyl-1-propylamine sulfate]	27		IC50 ([2]; Homo sapiens): 2740 nM
CC(CCN)ON (centres unmarked) [Example 9, 3-Aminooxy-1-butylamine dihydrochloride]	410		
CC(N)CCON (centres unmarked) [Example 3, 4-Aminooxy-2-butylamine dihydrochloride]	19	3760	

Now from value to molecule, other results behind:

IC50 [1] [nM]	IC50 [2, 7] [nM]	SMILES	other results
440		NOCC[C@H](N)CO [Example 6, (2S)-4-Aminooxy-1-hydroxy-2-butylamine sulfate]	
320		CC(N)C(C)CON (centres unmarked) [Example 10, 4-Aminooxy-3-methyl-2-butylamine sulfate]	
300		CC(C)(N)CCON [Example 5, 4-Aminooxy-2-methyl-2-butylamine dihydrochloride]	
360		CCC(N)CCON (centres unmarked) [Example 4, 1-aminooxy-3-pentylamine dihydrochloride]	
88	8100	C[C@H](N)CCON [Example 1, (2S)-4-Aminooxy-2-butylamine dihydrochloride]	
